Measured values taken from patent US5789434A, “Derivatives of substituted 4-biarylbutyric acid as matrix metalloprotease inhibitors” (priority 1995, dated 1998).

What was measured:
Type in all cases: biochemical
[1] = biological target: T1, MMP-3 (Homo sapiens, UniProt P08254); experiment: Automated MMP Profiling Assay, MMP-3 fluorogenic; conditions: 96-well automated, P218
T1 construct: Truncated Prostromelysin-257 was expressed in a soluble form in E.coli; made in house; host or cells: E. coli
T1 sequence (P08254 100-274 limits assumed): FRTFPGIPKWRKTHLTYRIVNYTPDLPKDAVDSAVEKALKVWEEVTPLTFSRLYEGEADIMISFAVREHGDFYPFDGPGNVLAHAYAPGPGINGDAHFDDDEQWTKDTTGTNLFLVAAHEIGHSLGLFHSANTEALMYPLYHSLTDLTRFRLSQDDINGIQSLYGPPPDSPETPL
Excerpt: This assay with each invention compound was run with the three enzymes MMP-3, MMP-9 and MMP-2 in parallel as adapted for a 96-well microtitre plate using a Hamilton A® workstation.

[2] = biological target: T2, MMP-2 (Homo sapiens, UniProt P08253); experiment: Automated MMP Profiling Assay, MMP-2 fluorogenic; conditions: 96-well automated, P218; read-out: MMP-2 Fluorogenic IC50 (profiling)
T2 sequence (P08253 110-660): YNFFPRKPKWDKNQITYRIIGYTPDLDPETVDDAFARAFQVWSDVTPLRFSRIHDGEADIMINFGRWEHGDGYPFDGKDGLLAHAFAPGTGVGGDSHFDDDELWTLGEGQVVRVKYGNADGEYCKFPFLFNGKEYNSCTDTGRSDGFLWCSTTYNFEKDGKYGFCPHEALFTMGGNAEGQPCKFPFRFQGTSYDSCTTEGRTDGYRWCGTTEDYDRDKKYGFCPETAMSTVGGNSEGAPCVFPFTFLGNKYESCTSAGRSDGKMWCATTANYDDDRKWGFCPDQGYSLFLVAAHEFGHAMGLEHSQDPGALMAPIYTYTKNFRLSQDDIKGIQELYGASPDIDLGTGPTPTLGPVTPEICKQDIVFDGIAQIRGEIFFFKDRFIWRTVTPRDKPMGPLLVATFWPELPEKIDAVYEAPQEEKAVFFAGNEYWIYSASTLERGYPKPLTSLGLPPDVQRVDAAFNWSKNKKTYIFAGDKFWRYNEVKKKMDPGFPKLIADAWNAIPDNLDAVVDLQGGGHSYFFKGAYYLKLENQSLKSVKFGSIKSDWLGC

[3] = biological target: T3, MMP-9 (Homo sapiens, UniProt P14780); experiment: Automated MMP Profiling Assay, MMP-9 fluorogenic; conditions: 96-well automated, P218
T3 construct: from tissue; host or cells: human polymorphonuclear leukocytes (PMN) from whole blood (New York Blood Center), PMA-stimulated supernatant
T3 sequence (P14780 107-707 limits assumed): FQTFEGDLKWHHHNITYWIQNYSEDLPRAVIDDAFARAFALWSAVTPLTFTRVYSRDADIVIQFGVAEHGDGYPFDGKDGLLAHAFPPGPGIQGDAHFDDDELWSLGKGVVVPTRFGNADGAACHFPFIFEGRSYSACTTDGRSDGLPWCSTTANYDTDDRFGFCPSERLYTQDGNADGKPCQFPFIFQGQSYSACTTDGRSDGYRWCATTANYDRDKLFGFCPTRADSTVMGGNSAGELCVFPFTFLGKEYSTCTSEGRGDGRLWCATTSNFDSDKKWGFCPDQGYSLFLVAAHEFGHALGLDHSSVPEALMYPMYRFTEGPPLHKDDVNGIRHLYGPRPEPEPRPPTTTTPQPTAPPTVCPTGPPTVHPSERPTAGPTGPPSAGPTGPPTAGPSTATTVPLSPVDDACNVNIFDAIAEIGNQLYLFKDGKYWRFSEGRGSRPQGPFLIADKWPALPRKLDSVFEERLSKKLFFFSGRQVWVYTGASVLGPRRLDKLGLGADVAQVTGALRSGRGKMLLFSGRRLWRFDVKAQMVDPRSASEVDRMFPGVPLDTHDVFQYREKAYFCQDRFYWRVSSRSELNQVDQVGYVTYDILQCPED
Description: Briefly, polymorphonuclear leukocytes (PMN) preparations were isolated as described above from 3 or more units of freshly drawn whole blood obtained from the New York Blood Center (New York, N.Y.). Cells were resuspended in phosphate buffered saline (PBS) containing 100 ng/ml phorbol myristate acetate (PMA) in the presence of 50 mM diisopropylfluorophospate (DFP), 1 μg/ml leupeptin and aprotinin, and 1 mg/ml catalase for 1 hr at 37° C. Supernatants were collected by centrifugation (300×g) and the samples were frozen at -70° C. All chromatographic methods were performed at 4° C. Thawed samples were concentrated 5-fold using an Amicon chamber equipped with a YM-10 membrane. The concentrate was pressure dialyzed against 0.02M Tris-HCl, 0.1M NaCl, 1 mM CaCl2, 1 μM ZnCl2, 0.001% Brij-35, 0.02% sodium azide (NaN3), pH 7.5 and applied to DEAE ion exchange chromatography resin which was previously equilibrated with the same buffer at a flow rate of 0.4 ml/min. The column was extensively washed with the same buffer and gelatinase was eluted as 4 ml fractions from the column with 0.02M Tris-HCl, 0.5M NaCl, 1 mM CaCl2, 1 μM ZnCl2, 0.001% Brij-35, 0.02% NaN3, pH 7.5. Gelatinase containing fractions were observed by gelatin zymography (see below), loaded onto a gelatin agarose affinity resin and washed with the same buffer. Gelatinase activity was eluted at a flow rate of 1 ml/min from the column as 1 ml fractions with 0.02M Tris-HCl, 1M NaCl, 1 mM CaCl2, 1 μM ZnCl2, 0.001% Brij-35, 0.02% NaN3, pH 7.5 containing 10% dimethyl sulfoxide (DMSO). The fractions containing gelatinase activity were pooled and dialyzed against 0.005M Tris-HCl, 5 mM NaCl, 0.5 mM CaCl2, 0.1 μM ZnCl2, 0.001% Brij-35, pH 7.4. The protein content associated with material was determined with a micro-BCA assay (Pierce, Rockford, Ill.), lyophilized and reconstituted to a desired working concentration (100 μg/ml).
This assay was run with a protocol analogous to that reported for MMP-3 inhibition using the synthetic peptide P218 and each of the three enzymes and measuring quenched fluorescence. This assay with each invention compound was run with the three enzymes MMP-3, MMP-9 and MMP-2 in parallel as adapted for a 96-well microtitre plate using a Hamilton A® workstation.

| Structure (SMILES) | IC50 [1] | IC50 [2] | IC50 [3] |
| --- | --- | --- | --- |
| O=C(O)[C@H]1[C@H](CSc2cccs2)CC[C@@H]1C(=O)c1ccc(-c2ccc(Cl)cc2)cc1 (relative stereo) [Example 369, Cyclopentanecarboxylic acid, 2-[(4'-chloro[1,1'-biphenyl]-4-yl)carbonyl]-5-[(2-thienylthio)methyl]-, (1α,2β,5β)-] | 54 nM | 37 nM | 139 nM |
| O=C(NC[C@@H]1CC[C@H](C(=O)c2ccc(-c3ccc(Cl)cc3)cc2)[C@H]1C(=O)O)c1ccccc1 (relative stereo) [Example 370, Cyclopentanecarboxylic acid, 2-[(benzoylamino)methyl]-[(4'-chloro[1,1'-biphenyl]-4-yl)carbonyl]-, (1α,2β,5β)-] | 24 nM | 8.7 nM | 26 nM |
| COCCOCOC[C@@H]1CC[C@H](C(=O)c2ccc(-c3ccc(Cl)cc3)cc2)[C@H]1C(=O)O (relative stereo) [Example 371, Cyclopentanecarboxylic acid, 2-[(4'-chloro[1,1'-biphenyl]-4-yl)carbonyl]-5-[[(2-methoxyethoxy)methoxy]methyl]-, (1α,2β,5β)-] | 10 nM | 9.1 nM | 26 nM |
| O=C(O)[C@H]1[C@H](CSCc2ccccc2)CC[C@@H]1C(=O)c1ccc(-c2ccc(Cl)cc2)cc1 (relative stereo) [Example 372, Cyclopentanecarboxylic acid, 2-[(4'-chloro[1,1'-biphenyl]-4-yl)carbonyl]-5-[[(phenylmethyl)thio]methyl]-, (1α,2β,5β)-] | 39 nM | 22 nM | 65 nM |
| O=C(O)[C@H]1[C@H](CSc2ccccc2)CC[C@@H]1C(=O)c1ccc(-c2ccc(Cl)cc2)cc1 (relative stereo) [Example 373, Cyclopentanecarboxylic acid, 2-[(4'-chloro[1,1'-biphenyl]-4-yl)carbonyl]-5-[(phenylthio)methyl]-, (1α,2β,5β)-] | 56 nM | 24 nM | 113 nM |
| CCCSC[C@@H]1CC[C@H](C(=O)c2ccc(-c3ccc(Cl)cc3)cc2)[C@H]1C(=O)O (relative stereo) [Example 374, Cyclopentanecarboxylic acid, 2-[(4'-chloro[1,1'-biphenyl]-4-yl)carbonyl]-5-[(propylthio)methyl]-, (1α,2β,5β)-] | 54 nM | 34 nM | 271 nM |
| O=C(O)[C@H]1[C@H](CSc2nc3ccccc3s2)CC[C@@H]1C(=O)c1ccc(-c2ccc(Cl)cc2)cc1 (relative stereo) [Example 375, Cyclopentanecarboxylic acid, 2-[(2-benzothiazolylthio)methyl]-5-[(4'-chloro[1,1'-biphenyl]-4-yl)carbonyl]-, (1α,2β,5β)-] | 116 nM | 68 nM | 146 nM |
| COC(=O)c1ccccc1SC[C@@H]1CC[C@H](C(=O)c2ccc(-c3ccc(Cl)cc3)cc2)[C@H]1C(=O)O (relative stereo) [Example 376, Benzoic acid, 2-[[[2-carboxy-3-[(4'-chloro[1,1'-biphenyl]-4-yl)carbonyl]cyclopentyl]methyl]thio]-, 1-methyl ester, (1α,2β,3α)0] | 46 nM | 34 nM | 95 nM |
| O=C(NC[C@@H]1CC[C@H](C(=O)c2ccc(-c3ccc(Cl)cc3)cc2)[C@H]1C(=O)O)OCc1ccccc1 (relative stereo) [Example 377] | 24 nM | 28 nM | 44 nM |
| Cc1ccccc1C(=O)OC[C@@H]1CC[C@H](C(=O)c2ccc(-c3ccc(Cl)cc3)cc2)[C@H]1C(=O)O (relative stereo) [Example 378, Benzoic acid, 2-methyl-, [2-carboxy-3-[(4'-chloro[1,1'-biphenyl]-4-yl)carbonyl]cyclopentyl]methyl ester, (1α,2β,3α)-] | 77 nM | 43 nM | 83 nM |
| Cc1cccc(C(=O)OC[C@@H]2CC[C@H](C(=O)c3ccc(-c4ccc(Cl)cc4)cc3)[C@H]2C(=O)O)c1 (relative stereo) [Example 379, Benzoic acid, 3-methyl-, [2-carboxy-3-[(4'-chloro[1,1'-biphenyl]-4-yl)carbonyl]cyclopentyl]methyl ester, (1α,2β,3α)-] | 63 nM | 92 nM | 48 nM |
| Cc1ccc(C(=O)OC[C@@H]2CC[C@H](C(=O)c3ccc(-c4ccc(Cl)cc4)cc3)[C@H]2C(=O)O)cc1 (relative stereo) [Example 380, Benzoic acid, 4-methyl-, [2-carboxy-3-[(4'-chloro[1,1'-biphenyl]-4-yl)carbonyl]cyclopentyl]methyl ester, (1α,2β,3α)-] | 46 nM | 69 nM | 40 nM |
| COc1ccccc1C(=O)OC[C@@H]1CC[C@H](C(=O)c2ccc(-c3ccc(Cl)cc3)cc2)[C@H]1C(=O)O (relative stereo) [Example 381, Benzoic acid, 2-methoxy-, [2-carboxy-3-[(4'-chloro[1,1'-biphenyl]-4-yl)carbonyl]cyclopentyl]methyl ester, (1α,2β,3α)-] | 46 nM | 44 nM | 97 nM |
| COc1cccc(C(=O)OC[C@@H]2CC[C@H](C(=O)c3ccc(-c4ccc(Cl)cc4)cc3)[C@H]2C(=O)O)c1 (relative stereo) [Example 382, Benzoic acid, 3-methoxy-, [2-carboxy-3-[(4'-chloro[1,1'-biphenyl]-4-yl)carbonyl]cyclopentyl]methyl ester, (1α,2β,3α)-] | 42 nM | 64 nM | 39 nM |
| COc1ccc(C(=O)OC[C@@H]2CC[C@H](C(=O)c3ccc(-c4ccc(Cl)cc4)cc3)[C@H]2C(=O)O)cc1 (relative stereo) [Example 383, Benzoic acid, 4-methoxy-, [2-carboxy-3-[(4'-chloro[1,1'-biphenyl]-4-yl)carbonyl]cyclopentyl]methyl ester, (1α,2β,3α)-] | 58 nM | 110 nM | 53 nM |
| O=C(O)[C@H]1[C@H](CSc2nc3ccccc3o2)CC[C@@H]1C(=O)c1ccc(-c2ccc(Cl)cc2)cc1 (relative stereo) [Example 384, Cyclopentanecarboxylic acid, 2-[(2-benzoxazolylthio)methyl]-5-[(4'-chloro[1,1'-biphenyl]-4-yl)carbonyl]-, (1α,2β,5β)-] | 129 nM | 78 nM | 167 nM |
| O=C(O)[C@H]1[C@H](CN2C(=O)c3cccc([N+](=O)[O-])c3C2=O)CC[C@@H]1C(=O)c1ccc(-c2ccc(Cl)cc2)cc1 (relative stereo) [Example 385, Cyclopentanecarboxylic acid, 2-[(4'-chloro[1,1'-biphenyl]-4-yl)carbonyl]-5-[(1,3-dihydro-4-nitro-1,3-dioxo-2H-isoindol-2-yl)methyl]-, (1α,2β,5β)-] | 4.22 nM | 4.26 nM | 1.12 nM |
| O=C(O)[C@H]1[C@H](CN2C(=O)c3ccc([N+](=O)[O-])cc3C2=O)CC[C@@H]1C(=O)c1ccc(-c2ccc(Cl)cc2)cc1 (relative stereo) [Example 386, Cyclopentanecarboxylic acid, 2-[(4'-chloro[1,1'-biphenyl]-4-yl)carbonyl]-5-[(1,3-dihydro-5-nitro-1,3-dioxo-2H-isoindol-2-yl)methyl]-, (1α,2β,5β)-] | 8.34 nM | 11.7 nM | 0.97 nM |
